In article PMC5458547, “Discovery of first-in-class reversible dual small molecule inhibitors against G9a and DNMTs in hematological malignancies” (Nature Communications, 2017):

Experiments:
ROCK2 = molecular target: T1, ROCK2 (Homo sapiens, UniProt O75116); experiment: KINOMEscan kinase profiling; assay type: binding
T1 construct: purchased DiscoverRx (DiscoverX), KINOMEscan screening platform
Description: (§1) Kinase Selectivity Profiling
(§2) (out of which 90 are non-mutant kinases) was performed at DiscoverRx (http://www.discoverx.com/home) using the KINOMEscan™ screening platform at a test concentration of 10 µM. Results for primary screen […]
(§3) positive control signal) / (negative control signal – positive control signal) *100, where negative control corresponds to DMSO treatment (100%) and positive control to the signal obtained with a control competitive compound (0%). […]
(§4) using the Hill equation. Each target was assayed in duplicate. […]

JNK3 = molecular target: T2, JNK3 (Homo sapiens, UniProt P53779); experiment: KINOMEscan kinase profiling; assay type: binding; settings: read-out: Percent Control
T2 construct: purchased DiscoverX KINOMEscan (kinases); BPS Bioscience (epigenetic targets)
Description: as §1, §2, §3, §4

ADCK3 = molecular target: T3, ADCK3 (Homo sapiens, UniProt Q8NI60); experiment: KINOMEscan kinase profiling; assay type: binding; settings: read-out: Percent Control
T3 construct: purchased DiscoverX KINOMEscan (kinases); BPS Bioscience (epigenetic targets)
Description: as §1, §2, §3, §4

IKK-beta = molecular target: T4, IKK-beta (Homo sapiens, UniProt O14920); experiment: KINOMEscan kinase profiling; assay type: binding; settings: read-out: Percent Control
T4 construct: purchased DiscoverX KINOMEscan (kinases); BPS Bioscience (epigenetic targets)
Description: as §1, §2, §3, §4

SRC = molecular target: T5, SRC (Homo sapiens, UniProt P12931); experiment: KINOMEscan kinase profiling; assay type: binding; settings: read-out: Percent Control
T5 construct: purchased DiscoverX KINOMEscan (kinases); BPS Bioscience (epigenetic targets)
Description: as §1, §2, §3, §4

PCTK1 = molecular target: T6, PCTK1 (Homo sapiens, UniProt Q00536); experiment: KINOMEscan kinase profiling; assay type: binding; settings: read-out: Percent Control
T6 construct: purchased DiscoverX KINOMEscan (kinases); BPS Bioscience (epigenetic targets)
Description: as §1, §2, §3, §4

[1] = molecular target: T7, JAK2(JH1domain-catalytic) (Homo sapiens, UniProt O60674); experiment: KINOMEscan kinase profiling; assay type: binding; settings: read-out: Percent Control
T7 construct: JAK2(JH1domain-catalytic); purchased DiscoverX KINOMEscan (kinases); BPS Bioscience (epigenetic targets)
Description: as §1, §2, §3, §4

EGFR(L858R) = molecular target: T8, EGFR(L858R) (Homo sapiens, UniProt P00533, L858R); experiment: KINOMEscan kinase profiling; assay type: binding; settings: read-out: Percent Control
T8 construct: purchased DiscoverX KINOMEscan (kinases); BPS Bioscience (epigenetic targets)
Description: as §1, §2, §3, §4

CSNK1D = molecular target: T9, CSNK1D (Homo sapiens, UniProt P48730); experiment: KINOMEscan kinase profiling; assay type: binding; settings: read-out: Percent Control
T9 construct: purchased DiscoverX KINOMEscan (kinases); BPS Bioscience (epigenetic targets)
Description: as §1, §2, §3, §4

FGFR3 = molecular target: T10, FGFR3 (Homo sapiens, UniProt P22607); experiment: KINOMEscan kinase profiling; assay type: binding; settings: read-out: Percent Control
T10 construct: purchased DiscoverX KINOMEscan (kinases); BPS Bioscience (epigenetic targets)
Description: as §1, §2, §3, §4

TIE2 = molecular target: T11, TIE2 (Homo sapiens, UniProt Q02763); experiment: KINOMEscan kinase profiling; assay type: binding; settings: read-out: Percent Control
T11 construct: purchased DiscoverX KINOMEscan (kinases); BPS Bioscience (epigenetic targets)
Description: as §1, §2, §3, §4

RAF1 = molecular target: T12, RAF1 (Homo sapiens, UniProt P04049); experiment: KINOMEscan kinase profiling; assay type: binding; settings: read-out: Percent Control
T12 construct: purchased DiscoverX KINOMEscan (kinases); BPS Bioscience (epigenetic targets)
Description: as §1, §2, §3, §4

ULK2 = molecular target: T13, ULK2 (Homo sapiens, UniProt Q8IYT8); experiment: KINOMEscan kinase profiling; assay type: binding; settings: read-out: Percent Control
T13 construct: purchased DiscoverX KINOMEscan (kinases); BPS Bioscience (epigenetic targets)
Description: as §1, §2, §3, §4

[2] = molecular target: T14, TYK2(JH1domain-catalytic) (Homo sapiens, UniProt P29597); experiment: KINOMEscan kinase profiling; assay type: binding; settings: read-out: Percent Control
T14 construct: TYK2(JH1domain-catalytic); purchased DiscoverX KINOMEscan (kinases); BPS Bioscience (epigenetic targets)
Description: as §1, §2, §3, §4

RET = molecular target: T15, RET (Homo sapiens, UniProt P07949); experiment: KINOMEscan kinase profiling; assay type: binding; settings: read-out: Percent Control
T15 construct: purchased DiscoverX KINOMEscan (kinases); BPS Bioscience (epigenetic targets)
Description: as §1, §2, §3, §4

FGFR2 = molecular target: T16, FGFR2 (Homo sapiens, UniProt P21802); experiment: KINOMEscan kinase profiling; assay type: binding; settings: read-out: Percent Control
T16 construct: purchased DiscoverX KINOMEscan (kinases); BPS Bioscience (epigenetic targets)
Description: as §1, §2, §3, §4

PDPK1 = molecular target: T17, PDPK1 (Homo sapiens, UniProt O15530); experiment: KINOMEscan kinase profiling; assay type: binding; settings: read-out: Percent Control
T17 construct: purchased DiscoverX KINOMEscan (kinases); BPS Bioscience (epigenetic targets)
Description: as §1, §2, §3, §4

MAP3K4 = molecular target: T18, MAP3K4 (Homo sapiens, UniProt Q9Y6R4); experiment: KINOMEscan kinase profiling; assay type: binding; settings: read-out: Percent Control
T18 construct: purchased DiscoverX KINOMEscan (kinases); BPS Bioscience (epigenetic targets)
Description: as §1, §2, §3, §4

KIT(V559D,T670I) = molecular target: T19, KIT(V559D,T670I) (Homo sapiens, UniProt P10721, T670I/V559D); experiment: KINOMEscan kinase profiling; assay type: binding; settings: read-out: Percent Control
T19 construct: purchased DiscoverX KINOMEscan (kinases); BPS Bioscience (epigenetic targets)
Description: as §1, §2, §3, §4

PLK1 = molecular target: T20, PLK1 (Homo sapiens, UniProt P53350); experiment: KINOMEscan kinase profiling; assay type: binding; settings: read-out: Percent Control
T20 construct: purchased DiscoverX KINOMEscan (kinases); BPS Bioscience (epigenetic targets)
Description: as §1, §2, §3, §4

ERBB2 = molecular target: T21, ERBB2 (Homo sapiens, UniProt P04626); experiment: KINOMEscan kinase profiling; assay type: binding
T21 construct: purchased DiscoverRx (DiscoverX), KINOMEscan screening platform
Description: as §1, §2, §3, §4

AXL = molecular target: T22, AXL (Homo sapiens, UniProt P30530); experiment: KINOMEscan kinase profiling; assay type: binding; settings: read-out: Percent Control
T22 construct: purchased DiscoverX KINOMEscan (kinases); BPS Bioscience (epigenetic targets)
Description: as §1, §2, §3, §4

PRKCE = molecular target: T23, PRKCE (Homo sapiens, UniProt Q02156); experiment: KINOMEscan kinase profiling; assay type: binding
T23 construct: purchased DiscoverRx (DiscoverX), KINOMEscan screening platform
Description: as §1, §2, §3, §4

CDK2 = molecular target: T24, CDK2 (Homo sapiens, UniProt P24941); experiment: KINOMEscan kinase profiling; assay type: binding; settings: read-out: Percent Control
T24 construct: purchased DiscoverX KINOMEscan (kinases); BPS Bioscience (epigenetic targets)
Description: as §1, §2, §3, §4

BRAF = molecular target: T25, BRAF (Homo sapiens, UniProt P15056); experiment: KINOMEscan kinase profiling; assay type: binding; settings: read-out: Percent Control
T25 construct: purchased DiscoverX KINOMEscan (kinases); BPS Bioscience (epigenetic targets)
Description: as §1, §2, §3, §4

PIK3CG = molecular target: T26, PIK3CG (Homo sapiens, UniProt P48736); experiment: KINOMEscan kinase profiling; assay type: binding; settings: read-out: Percent Control
T26 construct: purchased DiscoverX KINOMEscan (kinases); BPS Bioscience (epigenetic targets)
Description: as §1, §2, §3, §4

RIOK2 = molecular target: T27, RIOK2 (Homo sapiens, UniProt Q9BVS4); experiment: KINOMEscan kinase profiling; assay type: binding; settings: read-out: Percent Control
T27 construct: purchased DiscoverX KINOMEscan (kinases); BPS Bioscience (epigenetic targets)
Description: as §1, §2, §3, §4

PDGFRA = molecular target: T28, PDGFRA (Homo sapiens, UniProt P16234); experiment: KINOMEscan kinase profiling; assay type: binding; settings: read-out: Percent Control
T28 construct: purchased DiscoverX KINOMEscan (kinases); BPS Bioscience (epigenetic targets)
Description: as §1, §2, §3, §4

CHEK1 = molecular target: T29, CHEK1 (Homo sapiens, UniProt O14757); experiment: KINOMEscan kinase profiling; assay type: binding; settings: read-out: Percent Control
T29 construct: purchased DiscoverX KINOMEscan (kinases); BPS Bioscience (epigenetic targets)
Description: as §1, §2, §3, §4

ACVR1B = molecular target: T30, ACVR1B (Homo sapiens, UniProt P36896); experiment: KINOMEscan kinase profiling; assay type: binding; settings: read-out: Percent Control
T30 construct: purchased DiscoverX KINOMEscan (kinases); BPS Bioscience (epigenetic targets)
Description: as §1, §2, §3, §4

MLK1 = molecular target: T31, MLK1 (Homo sapiens, UniProt P80192); experiment: KINOMEscan kinase profiling; assay type: binding; settings: read-out: Percent Control
T31 construct: purchased DiscoverX KINOMEscan (kinases); BPS Bioscience (epigenetic targets)
Description: as §1, §2, §3, §4

IGF1R = molecular target: T32, IGF1R (Homo sapiens, UniProt P08069); experiment: KINOMEscan kinase profiling; assay type: binding; settings: read-out: Percent Control
T32 construct: purchased DiscoverX KINOMEscan (kinases); BPS Bioscience (epigenetic targets)
Description: as §1, §2, §3, §4

MKNK1 = molecular target: T33, MKNK1 (Homo sapiens, UniProt Q9BUB5); experiment: KINOMEscan kinase profiling; assay type: binding; settings: read-out: Percent Control
T33 construct: purchased DiscoverX KINOMEscan (kinases); BPS Bioscience (epigenetic targets)
Description: as §1, §2, §3, §4

BRD1 = molecular target: T34, BRD1 (Homo sapiens, UniProt O95696); experiment: Epigenetics selectivity panel (BPS Bioscience); assay type: binding
T34 construct: purchased DiscoverX KINOMEscan (kinases); BPS Bioscience (epigenetic targets)

UM-UC-1 = experiment: Cell proliferation assay (MTS); assay type: cell-based; settings: Homo sapiens; Bladder
BxPC3 = experiment: Cell proliferation assay (MTS); assay type: cell-based; settings: Homo sapiens, BXPC-3; Pancreas
PFEIFFER = experiment: Cell proliferation assay (MTS); assay type: cell-based; settings: Homo sapiens, GC-DLBCL, 48 h
RT-4 = experiment: Cell proliferation assay (MTS); assay type: cell-based; settings: Homo sapiens, Bladder
[3] = 10 µM, read-out: Percent Control

T23 sequence (Q02156 whole entry): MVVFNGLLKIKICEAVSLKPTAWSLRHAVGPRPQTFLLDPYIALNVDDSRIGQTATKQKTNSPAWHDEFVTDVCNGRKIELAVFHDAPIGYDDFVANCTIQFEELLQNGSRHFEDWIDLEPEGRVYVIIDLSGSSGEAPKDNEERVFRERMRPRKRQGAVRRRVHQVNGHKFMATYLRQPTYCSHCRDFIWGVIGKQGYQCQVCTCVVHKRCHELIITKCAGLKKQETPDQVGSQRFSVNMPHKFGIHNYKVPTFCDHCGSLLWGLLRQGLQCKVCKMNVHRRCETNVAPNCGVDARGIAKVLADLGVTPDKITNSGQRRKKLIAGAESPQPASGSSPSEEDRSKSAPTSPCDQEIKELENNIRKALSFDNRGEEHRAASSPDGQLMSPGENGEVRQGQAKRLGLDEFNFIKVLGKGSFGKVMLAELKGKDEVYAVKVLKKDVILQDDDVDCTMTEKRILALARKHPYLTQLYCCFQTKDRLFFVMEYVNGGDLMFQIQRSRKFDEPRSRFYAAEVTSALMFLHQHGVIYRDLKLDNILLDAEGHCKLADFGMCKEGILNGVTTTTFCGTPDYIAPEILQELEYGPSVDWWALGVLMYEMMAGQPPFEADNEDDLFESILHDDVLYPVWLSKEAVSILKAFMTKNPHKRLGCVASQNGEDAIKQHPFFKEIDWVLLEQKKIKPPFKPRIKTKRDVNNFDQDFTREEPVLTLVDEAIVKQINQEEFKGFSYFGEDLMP
T21 sequence (P04626 23-1255): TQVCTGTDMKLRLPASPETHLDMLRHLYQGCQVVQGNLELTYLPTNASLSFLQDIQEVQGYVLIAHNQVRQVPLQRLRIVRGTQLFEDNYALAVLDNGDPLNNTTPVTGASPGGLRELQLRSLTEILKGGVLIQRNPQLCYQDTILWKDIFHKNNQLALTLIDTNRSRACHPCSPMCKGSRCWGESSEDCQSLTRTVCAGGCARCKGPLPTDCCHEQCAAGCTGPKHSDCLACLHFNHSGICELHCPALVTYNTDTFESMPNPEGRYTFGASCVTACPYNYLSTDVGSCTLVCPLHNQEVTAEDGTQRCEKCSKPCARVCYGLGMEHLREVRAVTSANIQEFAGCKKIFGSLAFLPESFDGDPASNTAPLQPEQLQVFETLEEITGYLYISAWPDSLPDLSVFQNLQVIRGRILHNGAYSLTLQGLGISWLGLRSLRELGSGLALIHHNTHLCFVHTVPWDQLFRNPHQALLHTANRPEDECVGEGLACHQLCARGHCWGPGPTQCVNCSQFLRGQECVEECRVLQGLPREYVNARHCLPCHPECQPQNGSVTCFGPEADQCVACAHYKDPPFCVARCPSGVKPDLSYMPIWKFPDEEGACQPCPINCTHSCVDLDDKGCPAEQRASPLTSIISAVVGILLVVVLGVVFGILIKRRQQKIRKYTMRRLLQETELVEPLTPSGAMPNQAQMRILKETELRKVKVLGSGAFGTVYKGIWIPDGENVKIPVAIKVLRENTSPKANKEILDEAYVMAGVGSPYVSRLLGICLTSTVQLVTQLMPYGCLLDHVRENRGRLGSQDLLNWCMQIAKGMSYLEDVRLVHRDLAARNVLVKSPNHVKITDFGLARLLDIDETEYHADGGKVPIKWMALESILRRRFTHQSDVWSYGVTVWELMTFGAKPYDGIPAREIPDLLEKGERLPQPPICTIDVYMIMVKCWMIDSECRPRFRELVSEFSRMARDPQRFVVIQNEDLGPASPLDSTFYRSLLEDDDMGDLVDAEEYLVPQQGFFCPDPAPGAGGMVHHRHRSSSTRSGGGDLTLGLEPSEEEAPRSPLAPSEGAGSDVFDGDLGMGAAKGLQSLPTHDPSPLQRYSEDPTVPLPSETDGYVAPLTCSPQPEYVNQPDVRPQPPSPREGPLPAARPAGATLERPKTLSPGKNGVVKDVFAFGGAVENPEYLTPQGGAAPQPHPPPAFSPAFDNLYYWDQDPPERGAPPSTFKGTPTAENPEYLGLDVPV
T1 sequence (O75116 whole entry): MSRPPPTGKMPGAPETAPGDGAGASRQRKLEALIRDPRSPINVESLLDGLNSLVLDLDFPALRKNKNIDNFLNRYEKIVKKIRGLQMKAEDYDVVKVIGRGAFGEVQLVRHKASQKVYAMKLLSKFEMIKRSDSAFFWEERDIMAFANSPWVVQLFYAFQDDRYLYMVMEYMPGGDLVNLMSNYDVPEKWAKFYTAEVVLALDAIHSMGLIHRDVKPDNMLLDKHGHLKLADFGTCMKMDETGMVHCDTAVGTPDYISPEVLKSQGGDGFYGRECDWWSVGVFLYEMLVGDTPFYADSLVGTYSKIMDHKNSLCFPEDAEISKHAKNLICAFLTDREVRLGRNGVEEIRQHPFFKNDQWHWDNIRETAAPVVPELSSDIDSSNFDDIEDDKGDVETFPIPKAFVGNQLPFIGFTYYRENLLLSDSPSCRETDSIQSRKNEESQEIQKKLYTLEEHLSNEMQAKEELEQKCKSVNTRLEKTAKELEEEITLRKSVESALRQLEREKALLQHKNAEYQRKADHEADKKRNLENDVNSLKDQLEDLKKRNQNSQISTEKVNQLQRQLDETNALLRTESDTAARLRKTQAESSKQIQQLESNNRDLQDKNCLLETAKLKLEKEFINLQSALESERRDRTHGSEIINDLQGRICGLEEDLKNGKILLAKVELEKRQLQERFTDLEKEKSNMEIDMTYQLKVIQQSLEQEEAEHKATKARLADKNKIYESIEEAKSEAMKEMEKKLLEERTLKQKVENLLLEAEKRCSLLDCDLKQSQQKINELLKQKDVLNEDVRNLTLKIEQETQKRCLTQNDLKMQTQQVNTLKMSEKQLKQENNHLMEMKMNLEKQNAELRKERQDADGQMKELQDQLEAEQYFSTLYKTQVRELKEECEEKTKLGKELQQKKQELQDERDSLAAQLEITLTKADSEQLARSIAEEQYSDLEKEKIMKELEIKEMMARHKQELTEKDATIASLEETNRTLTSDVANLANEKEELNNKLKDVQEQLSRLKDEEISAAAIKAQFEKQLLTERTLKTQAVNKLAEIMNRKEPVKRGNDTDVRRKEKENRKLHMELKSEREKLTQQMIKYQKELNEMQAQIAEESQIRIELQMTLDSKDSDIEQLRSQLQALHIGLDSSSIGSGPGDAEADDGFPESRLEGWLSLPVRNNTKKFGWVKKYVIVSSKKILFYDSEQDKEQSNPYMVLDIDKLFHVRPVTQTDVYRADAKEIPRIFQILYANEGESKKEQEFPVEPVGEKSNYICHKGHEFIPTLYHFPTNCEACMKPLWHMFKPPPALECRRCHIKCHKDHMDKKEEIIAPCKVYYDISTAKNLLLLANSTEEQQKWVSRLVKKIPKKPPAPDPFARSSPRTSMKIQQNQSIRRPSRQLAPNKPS
T22 sequence (P30530 26-894): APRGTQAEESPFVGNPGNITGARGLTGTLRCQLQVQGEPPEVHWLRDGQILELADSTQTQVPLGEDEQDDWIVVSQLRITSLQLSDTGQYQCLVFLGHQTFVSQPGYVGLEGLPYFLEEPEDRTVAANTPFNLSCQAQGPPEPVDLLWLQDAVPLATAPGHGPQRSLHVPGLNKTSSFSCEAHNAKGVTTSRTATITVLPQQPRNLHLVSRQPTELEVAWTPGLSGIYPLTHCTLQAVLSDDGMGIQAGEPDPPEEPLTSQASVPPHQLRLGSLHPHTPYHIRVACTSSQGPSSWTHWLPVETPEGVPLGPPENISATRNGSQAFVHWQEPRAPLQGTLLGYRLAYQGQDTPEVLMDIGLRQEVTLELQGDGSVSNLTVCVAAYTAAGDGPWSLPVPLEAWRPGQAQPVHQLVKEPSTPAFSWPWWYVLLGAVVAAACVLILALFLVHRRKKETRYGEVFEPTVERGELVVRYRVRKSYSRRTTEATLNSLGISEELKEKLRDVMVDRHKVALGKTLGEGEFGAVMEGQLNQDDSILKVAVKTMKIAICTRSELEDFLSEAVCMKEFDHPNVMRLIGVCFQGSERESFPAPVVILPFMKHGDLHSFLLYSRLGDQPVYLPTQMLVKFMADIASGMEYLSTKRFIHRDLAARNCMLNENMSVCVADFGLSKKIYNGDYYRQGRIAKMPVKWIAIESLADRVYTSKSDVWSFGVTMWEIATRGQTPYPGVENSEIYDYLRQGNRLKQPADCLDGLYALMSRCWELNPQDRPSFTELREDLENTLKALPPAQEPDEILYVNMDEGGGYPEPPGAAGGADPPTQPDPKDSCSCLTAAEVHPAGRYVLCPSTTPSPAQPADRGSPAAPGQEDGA
T3 sequence (Q8NI60 163-647): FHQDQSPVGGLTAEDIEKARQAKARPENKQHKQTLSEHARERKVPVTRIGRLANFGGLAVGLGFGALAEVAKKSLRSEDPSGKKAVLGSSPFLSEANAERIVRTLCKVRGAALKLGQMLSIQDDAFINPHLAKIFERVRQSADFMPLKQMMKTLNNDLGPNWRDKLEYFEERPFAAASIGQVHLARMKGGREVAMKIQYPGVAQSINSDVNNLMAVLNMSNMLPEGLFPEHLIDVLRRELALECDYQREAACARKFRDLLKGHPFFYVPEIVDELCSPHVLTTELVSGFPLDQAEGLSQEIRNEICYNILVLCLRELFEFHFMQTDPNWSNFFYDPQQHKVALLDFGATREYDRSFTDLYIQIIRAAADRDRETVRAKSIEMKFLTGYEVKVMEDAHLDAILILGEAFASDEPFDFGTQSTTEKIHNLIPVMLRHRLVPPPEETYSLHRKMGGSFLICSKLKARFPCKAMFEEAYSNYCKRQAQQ
T14 sequence (P29597 888-1187 limits assumed): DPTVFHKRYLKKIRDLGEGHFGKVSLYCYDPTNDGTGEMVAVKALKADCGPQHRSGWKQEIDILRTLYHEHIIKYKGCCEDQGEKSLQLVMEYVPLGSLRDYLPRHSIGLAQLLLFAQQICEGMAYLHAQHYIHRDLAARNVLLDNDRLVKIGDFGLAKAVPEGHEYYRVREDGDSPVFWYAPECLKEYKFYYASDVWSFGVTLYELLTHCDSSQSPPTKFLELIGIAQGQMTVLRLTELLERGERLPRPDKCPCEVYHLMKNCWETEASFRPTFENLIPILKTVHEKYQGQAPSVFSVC

`COc1cc2c(NC3CCN(C)CC3)cc(-c3ccc(C)o3)nc2cc1OCCCN1CCCC1` [CM-272, 6-methoxy-2-(5-methyl-2-furyl)-N-(1-methyl-4-piperidyl)-7-(3-pyrrolidin-1-ylpropoxy)quinolin-4-amine] was tested, and the remaining binding at 10 µM (ROCK2; [3]) was 0.3%, the Kd (ROCK2; KINOMEscan) was 1700 nM and the remaining binding at 10 µM (JNK3) was 8.9%. For the same compound, the remaining binding at 10 µM (ADCK3) was 100%, the remaining binding at 10 µM (IKK-beta) was 13% and the remaining binding at 10 µM (SRC) was 100%. It also gave a remaining binding at 10 µM (PCTK1) of 23%, a remaining binding at 10 µM [1] of 10% and a remaining binding at 10 µM (EGFR(L858R)) of 100%. The remaining binding at 10 µM (CSNK1D) was 95%, the remaining binding at 10 µM (FGFR3) was 100% and the remaining binding at 10 µM (TIE2) was 90%. It also gave a remaining binding at 10 µM (RAF1) of 73%, a remaining binding at 10 µM (ULK2) of 9.8% and a remaining binding at 10 µM [2] of 22%. For the same compound, the remaining binding at 10 µM (RET) was 100%, the remaining binding at 10 µM (FGFR2) was 100% and the remaining binding at 10 µM (PDPK1) was 100%. It also gave a remaining binding at 10 µM (MAP3K4) of 93%, a remaining binding at 10 µM (KIT(V559D,T670I)) of 100% and a remaining binding at 10 µM (PLK1) of 31%. The remaining binding at 10 µM (ERBB2; [3]) was 0%, the Kd (ERBB2; KINOMEscan) was 1600 nM and the remaining binding at 10 µM (AXL) was 100%. The remaining binding at 10 µM (PRKCE; [3]) was 0%, the Kd (PRKCE; KINOMEscan) was 1200 nM and the remaining binding at 10 µM (CDK2) was 100%. It also gave a remaining binding at 10 µM (BRAF) of 14%, a remaining binding at 10 µM (PIK3CG) of 88% and a remaining binding at 10 µM (RIOK2) of 27%. The remaining binding at 10 µM (PDGFRA) was 14%, the remaining binding at 10 µM (CHEK1) was 99% and the remaining binding at 10 µM (ACVR1B) was 81%. It also gave a remaining binding at 10 µM (MLK1) of 100%, a remaining binding at 10 µM (IGF1R) of 97% and a remaining binding at 10 µM (MKNK1) of 1.4%. The inhibition at 10 µM (BRD1) was 0%, the GI50 (UM-UC-1) was 842 nM and the GI50 (BxPC3) was 319 nM. For the same compound, the GI50 (PFEIFFER) was 1220 nM and the GI50 (RT-4) was 817 nM.
